Tests used:
cells = conditions: cited from earlier work
LTA4 hydrolase = conditions: isolated enzyme; T. D. Penning et al, 1995; cited from earlier work
male Lewis rats = assay: Rat Adjuvant Arthritis Model; assay type: in vivo; conditions: Day 10 to Day 21, vs vehicle, P<0.05
Experimental: Rat Adjuvant Arthritis Model
Adjuvant arthritis was induced in male Lewis rats on Day 0, using a suspension of mycobacterium butyncum in mineral oil, inoculated subcutaneously, into the base of the tail. The volume of the hind paws was measured regularly to assess the time course of disease progression. […] Nine animals were allocated to each group. Animals received their first treatment on Day 10, either vehicle (2% DMSO in PBSiTween (0.01%v/v)) or test compound, formulated as a suspension in the vehicle. Treatment was administered as an intraperitoneal bolus injection, once daily, for the duration of the study. The study was ended on Day 21. The percent increase in mean paw volume from Day 10 to Day 21 was calculated for each animal and the compound treated groups compared to the vehicle treated control group.

LTA4-hydrolase = biological target: T1, LTA4-hydrolase (Rattus norvegicus, UniProt P30349); assay: Inhibition of LTA4 hydrolase activity (LTB4 formation by radioimmunoassay); assay type: biochemical; conditions: crude fraction from rat lung, 1 minute at 37° C.
T1 construct: was prepared as a crude fraction from rat lung tissue; from tissue; host or cells: rat lung tissue, crude fraction
T1 sequence (P30349 1-611): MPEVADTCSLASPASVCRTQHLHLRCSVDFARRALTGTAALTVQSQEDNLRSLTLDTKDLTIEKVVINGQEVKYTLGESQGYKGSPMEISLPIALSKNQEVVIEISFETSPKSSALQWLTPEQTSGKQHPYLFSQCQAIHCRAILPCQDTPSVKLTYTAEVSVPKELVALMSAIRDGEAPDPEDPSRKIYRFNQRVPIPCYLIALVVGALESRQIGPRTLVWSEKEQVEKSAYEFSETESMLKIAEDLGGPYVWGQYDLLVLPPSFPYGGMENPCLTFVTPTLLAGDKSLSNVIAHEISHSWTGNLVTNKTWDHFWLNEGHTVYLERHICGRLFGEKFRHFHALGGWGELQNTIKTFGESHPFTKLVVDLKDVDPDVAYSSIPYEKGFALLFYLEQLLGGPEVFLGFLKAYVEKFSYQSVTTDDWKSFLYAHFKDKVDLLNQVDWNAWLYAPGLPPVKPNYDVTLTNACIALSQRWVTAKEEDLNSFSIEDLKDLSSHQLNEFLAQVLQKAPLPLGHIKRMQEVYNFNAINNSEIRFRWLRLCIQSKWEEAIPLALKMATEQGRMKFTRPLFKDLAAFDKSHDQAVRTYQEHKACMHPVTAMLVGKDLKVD
Experimental: LTA4 -hydoiase was prepared as a crude fraction from rat lung tissue. The sodium salt of LTA4 was incubated with the enzyme and test compounds at 10 μM for 1 minute at 37° C. The reaction was terminated by the addition of ice-cold methanol. Formation of LTB4 was assessed by radioimmunoassay. Results are expressed as a percentage inhibition of LTA4 hydrolase activity.

[1] = tested on: Leukotriene Synthesis by Rat Basophilic Leukaemia Cells; assay: Inhibition of Leukotriene Synthesis by Rat Basophilic Leukaemia Cells (RBL-1, A23187 stimulated, LTB4); assay type: cell-based; conditions: RBL-1 cells, 4.75 hours preincubation, 10 μM A23187, 15 minutes at 37° C., value estimated, read-out: IC50 (leukotriene B4 synthesis)
Experimental: Inhibition of Leukotriene Synthesis by Rat Basophilic Leukaemia Cells
The rat basophilic leukaemia cell line RBL-1 was obtained from ATCC or ECACC and cultured in Dulbecco's modified Eagle's medium (DMEM) supplemented with 10% foetal bovine serum, non-essential amino acids, sodium pyruvate, penicillin, streptomycin and 2mM glutamine, at 37° C. in an atmosphere of 5% CO2 in air, as recommended by the culture collection.
RBL-1 cells were harvested during log growth, washed and resuspended in Hanks Balanced Salt Solution, without calcium chloride and magnesium chloride, supplemented with 10% foetal bovine serum and penicillin, streptomycin, and 2mM glutamine and adjusted to a final cell concentration of 1.25×10^5 cells/ml. Cells incubated in the presence of the appropriate concentration of inhibitor or vehicle for 4.75 hours at 37° C. Cells then transferred to ice for 15 minutes. Cells washed by centrifugation and resuspension in prechilled Phosphate Buffered Saline, with calcium chloride and magnesium chloride, supplemented with the appropriate concentration of test sample. […]
Treated cells then exposed to 10 μM A23187 for 15 minutes at 37° C. […] The levels of leukotriene B4 then determined in the cell free supernatant using the Leukotriene B4 [^3 H] assay system from Amersham Pharmacia Biotech.

inhibition at 10 µM (LTA4-hydrolase) [%]	IC50 [1] [nM]	Compound	ability to penetrate cells (cells)	LTA4 hydrolase inhibitory activity (LTA4 hydrolase)	inhibition of paw swelling (male Lewis rats; 30mg/kg i.p. once daily) [%]	inhibition of paw swelling (male Lewis rats; 100mg/kg i.p. once daily) [%]
78	2	C=CC[C@H](C(=O)NO)[C@@H](CC(C)C)C(=O)N[C@@H](Cc1ccccc1)C(=O)OC1CCCC1 [Example 19, 2S-(3S-Hydroxycarbamoyl-2R-isobutyl-hex-5-enoylamin)-3-phenylpropionic acid cyclopentyl ester]			60	77
75		C=CC[C@H](C(=O)NO)[C@@H](CC(C)C)C(=O)N[C@H](C(=O)OC1CCCC1)c1ccccc1 [Example 40, 2S-(3S-Hydroxycarbamoyl-2R-isobutyl-hex-5-enoylamino)-2-phenylethanoic acid cyclopentyl ester]				

More lines, now with the values behind:

Compound	inhibition at 10 µM (LTA4-hydrolase) [%]	IC50 [1] [nM]	ability to penetrate cells (cells)	LTA4 hydrolase inhibitory activity (LTA4 hydrolase)	inhibition of paw swelling (male Lewis rats; 30mg/kg i.p. once daily) [%]	inhibition of paw swelling (male Lewis rats; 100mg/kg i.p. once daily) [%]
C[C@H](CS)C(=O)N1CCC[C@H]1C(=O)O [captopril]			unable to effectively penetrate cells	exhibit LTA4 hydrolase inhibitory activity against isolated enzyme		
CC(C)C[C@H](NC(=O)[C@@H](O)[C@H](N)Cc1ccccc1)C(=O)O [bestatin]			unable to effectively penetrate cells	exhibit LTA4 hydrolase inhibitory activity against isolated enzyme		
C[C@H](NC(=O)[C@@H](CC(=O)NO)Cc1ccccc1)C(=O)O [kelatorphan]	80	350	unable to effectively penetrate cells	exhibit LTA4 hydrolase inhibitory activity against isolated enzyme		

From US6306881A, “Anti-inflammatory agents” (British Biotech Pharmaceuticals, priority 1998, dated 2001)
